According to paper PMC4015918, “Conjugation to a SMAC mimetic potentiates sigma-2 ligand induced tumor cell death in ovarian cancer” (Molecular Cancer, 2014):

Tests used:
Format in all cases: cell-based
TNFα = TNFα ELISA of cell culture supernatants; conditions: SKOV3 conditioned medium, 1 μM and 3 μM
Protocol: Figure 5 SW IV-134 induces activation of the TNFα-dependent extrinsic death pathway. (A) Quantitative real-time PCR analysis of TNFα mRNA expression was done on RNA samples derived from SKOV3 cells treated with SW IV-134 (1 μM and 3 μM) for indicated time periods. All values were normalized to a GAPDH internal control (p < 0.0001, one-way ANOVA). (B) SKOV3 cells were treated with SW IV-134 (1 μM and 3 μM) and cell-culture supernatants were collected at 4, 12, and 24 hours after treatment, and subsequently examined by anti-TNFα ELISA according to manufacturer’s instructions (p < 0.0001, one-way ANOVA). (C) SKOV3 cells were treated with SW IV-134 at indicated doses either alone or in the presence of anti-TNFα blocking antibody for 18 hours. Cell viability was determined as described in the experimental methods (p < 0.019, Student’s t-test).
SKOV3 cells were treated with SW IV-134 (1 μM and 3 μM). Cell culture supernatants were collected at 4, 12, and 24 hours after treatment. Medium was collected, floating cells were removed by centrifugation at 1200 × g for 5 minutes, and samples were frozen at -20°C until analysis. TNFα ELISA was performed using a quantitative high sensitivity sandwich immunoassay from eBioscience (San Diego, CA) as per the manufacturer’s instructions.

XIAP = target: T1, XIAP (Homo sapiens, UniProt P98170); experiment: Western blot for XIAP levels; conditions: SKOV3 cells, 10 μM, 4 hours
T1 construct: endogenous in cells; host or cells: SKOV3
Protocol: (§1) Figure 4 SW IV-134 engages in SMAC-dependent pathway activation. (A) SKOV3 cells were treated with vehicle only (Ctrl.), SW43 (10 μM), and SW IV-134 (10 μM) for 4 hours and cell lysates were subjected to Western blot analysis using antibodies against XIAP, cIAP-1, cIAP-2, NF-қB and NIK. While XIAP seems unaffected under the conditions used, cIAP-1 and cIAP-2 proteins are readily undetectable shortly post treatment. SW IV-134 treatment also leads to accumulation of NF-қB inducing kinase (NIK) and activation of NF-қB pathway. (B) SKOV3 cells were treated with SW IV-134 at the indicated doses either alone or in the presence of proteasome inhibitor MG132 (20 μM) for 18 hours. […] Cell viability was determined as described in the experimental methods (p < 0.011, Student’s t-test).
(§2) Cells were lysed in radioimmunoprecipitation assay buffer [50 mM Tris, 150 mM sodium chloride, 1.0 mM EDTA, 1% Nonidet P40, and 0.25% SDS (pH 7.0)], supplemented with complete protease inhibitor cocktail (Roche, Mannheim) and phosphatase inhibitor cocktail 1 (Sigma Chemical Co., St. Louis, MO). The protein concentration was determined using a BioRad Dc protein assay kit (Bio-Rad Laboratories, Hercules, CA). Lysates containing 30 μg of protein were run on a 12% polyacrylamide gel and transferred to a PVDF membrane (Bio-Rad Laboratories, Hercules, CA). […]

SKOV3 cells = experiment: SKOV3 cell viability (CellTiter-Glo) with SW IV-134 alone or with pathway blockers
Protocol: (§3) Figure 3 Treatment with SW IV-134 results in caspase-mediated cell death. (A) Cells were treated with vehicle only (Ctrl.), SW43 (10 μM), and SW IV-134 (10 μM) for 24 hours. Cell lysates were subjected to Western blot analysis, and probed with antibodies specific for the precursors and activated forms of caspases 8, 9, and 3. (B) SKOV3 cells were treated with SW IV-134 at indicated doses either alone or in the presence of the pan-caspase inhibitor Z-VAD-FMK (20 μM) for 18 hours. Cell viability was determined by CellTiter-Glo assays (p < 0.018, Student’s t-test).
as §1
Figure 5 SW IV-134 induces activation of the TNFα-dependent extrinsic death pathway. (A) Quantitative real-time PCR analysis of TNFα mRNA expression was done on RNA samples derived from SKOV3 cells treated with SW IV-134 (1 μM and 3 μM) for indicated time periods. All values were normalized to a GAPDH internal control (p < 0.0001, one-way ANOVA). […] Cell viability was determined as described in the experimental methods (p < 0.019, Student’s t-test).
Cells (1 × 10^4) were seeded into 96 well plates. […] Cell viability was determined 18 hours after treatment using CellTiter-Glo Luminiscent Viability Assay (Promega, Madison, WI). Data were recorded with a SpectraMax Gemini microplate spectrofluorometer, Molecular Devices (Silicon Valley, CA).

[1] = system: caspase 3, caspase 8, and caspase 9; experiment: Western blot for precursors and activated forms of caspases 8, 9 and 3; conditions: 10 μM, 24 hours, different ovarian cancer cell lines
Protocol: as §3, §2

Hey A8 cells = experiment: Caspase-Glo caspase 3, 8 and 9 activity in Hey A8 cells; conditions: 24 hours
Protocol: Caspase 3, 8 and 9 activities were measured using Caspase-Glo® Assay Systems according to the manufacturer’s instructions (Promega, Madison, WI). Briefly, the assay systems are based on caspase-specific substrates, which are activated by cleavage, resulting in caspase specific luminescence signals. HeyA8 cells were plated at a density of 1 × 10^4 in white 96 well, clear bottom plates for 24 hours before treatment. Cells were treated with different concentrations of SW IV-134. Caspase 3, 8 and 9 assays were performed by adding 100 μl of caspase reagents to each well. The contents were mixed using a plate shaker for 30 seconds and incubated at room temperature for 90 minutes. Luminescence signal was measured using a multi-mode microplate reader (BioTek, Winooski, VT).
Supplementary file 1476-4598-13-50-S3.pdf: Additional file 3: Figure S2 SW IV-134 induces caspase activation in ovarian cancer. Caspase 3, 8 and 9 activities were measured in Hey A8 cells using Caspase-Glo® Assay Systems (Promega). Hey A8 cells were treated with SW IV-134 at indicated drug concentrations for 24 hours. Caspase assays were performed by adding 100 μl lysis buffer containing the substrates for the respective caspase to be assayed. Luminescence signal intensities were recorded using a multi-mode microplate reader (BioTek). […] (A) caspase 8; (B) caspase 9; and (C) caspase 3. p < 0.001 for all analyses, one-way ANOVA. […]

NF-қB (p65) = experiment: Western blot for phosphorylation of NF-қB (p65); conditions: SKOV3 cells, 10 μM, 4 hours
Protocol: as §1, §2

T1 sequence (P98170 whole entry): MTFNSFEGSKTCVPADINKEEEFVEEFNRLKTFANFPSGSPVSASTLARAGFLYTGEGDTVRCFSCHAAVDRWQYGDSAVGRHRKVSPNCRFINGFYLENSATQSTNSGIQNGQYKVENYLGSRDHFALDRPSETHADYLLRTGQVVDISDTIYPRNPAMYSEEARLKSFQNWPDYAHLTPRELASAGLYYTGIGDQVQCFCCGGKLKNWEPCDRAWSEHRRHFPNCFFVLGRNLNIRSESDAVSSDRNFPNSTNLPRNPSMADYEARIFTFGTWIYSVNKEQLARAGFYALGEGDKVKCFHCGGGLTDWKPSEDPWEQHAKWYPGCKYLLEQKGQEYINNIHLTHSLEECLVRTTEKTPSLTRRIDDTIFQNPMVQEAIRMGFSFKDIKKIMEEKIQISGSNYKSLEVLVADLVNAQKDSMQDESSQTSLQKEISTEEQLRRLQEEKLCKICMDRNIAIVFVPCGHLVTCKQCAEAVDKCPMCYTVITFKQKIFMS

**Q.** How did the TNFα protein secretion (TNFα; 4 hours) turn out when COc1ccc(C)cc1NC(=O)OC1CC2CCCC(C1)N2CCCCCCCCCCN[C@@H](C)C(=O)N[C@H](C(=O)N1CCC[C@H]1C(=O)N[C@@H]1CCCc2ccccc21)C(C)(C)C (stereo partly shown) [SW IV-134] was run?
**A.** undetectable

**Q.** And the TNFα protein secretion (TNFα; 12 hours)?
**A.** mildly elevated

**Q.** And the TNFα protein secretion (TNFα; 24 hours)?
**A.** highest levels

**Q.** What about the XIAP levels (XIAP) of the same compound?
**A.** without affecting the XIAP levels

**Q.** What about the “Cell death induced by SW IV-134 in the presence of TNFα-blocking antibody” value (SKOV3 cells; SKOV3, 18 hours) of the same compound?
**A.** significant protection from cell death

**Q.** And the “SW IV-134 mediated cell death in the presence of proteasome inhibitor MG132” value (SKOV3 cells; SKOV3, MG132 20 μM, 18 hours)?
**A.** significantly reduced

**Q.** And the “SW IV-134 induced cell death in the presence of pan-caspase inhibitor Z-VAD-FMK” value (SKOV3 cells; SKOV3, Z-VAD-FMK 20 μM, 18 hours)?
**A.** significantly reduced

**Q.** What about the “Activation of caspase 3, caspase 8, and caspase 9” value [1] of the same compound?
**A.** induced

**Q.** And the “Caspase 3, 8 and 9 activities (fold over DMSO control)” value (Hey A8 cells)?
**A.** significant increases in caspase activities

**Q.** What about the “Activation (phosphorylation) of NF-қB (p65)” value (NF-қB (p65)) of the same compound?
**A.** activation (phosphorylation) of NF-қB (p65)
